Laboratory results as given in the NIST ThermoML archive (doi:10.1021/je060271a).
± gives the expanded uncertainty stated by the source.

Settings: 283.15 K, Liquid, Vibrating tube method

CCCCCCCC(=O)OCC(COC(=O)CCCCCCC)(COC(=O)CCCCCCC)COC(=O)CCCCCCC [pentaerythritol tetraoctanoate]
Settings	mass density [kg/m3]
16618 kPa	979.5 ± 1.2
16646 kPa	979.5 ± 1.2
16674 kPa	979.5 ± 1.2
16703 kPa	979.6 ± 1.2
16736 kPa	979.5 ± 1.2
16765 kPa	979.6 ± 1.2
16794 kPa	979.5 ± 1.2
16827 kPa	979.7 ± 1.2
16856 kPa	979.7 ± 1.2
16890 kPa	979.7 ± 1.2
16919 kPa	979.7 ± 1.2
16949 kPa	979.6 ± 1.2
16980 kPa	979.7 ± 1.2
17009 kPa	979.6 ± 1.2
17039 kPa	979.7 ± 1.2
17073 kPa	979.7 ± 1.2
17102 kPa	979.7 ± 1.2
17138 kPa	979.7 ± 1.2
17168 kPa	979.9 ± 1.2
17198 kPa	979.9 ± 1.2
17227 kPa	979.7 ± 1.2
17264 kPa	979.9 ± 1.2
17293 kPa	979.9 ± 1.2
17323 kPa	979.8 ± 1.2
17360 kPa	979.9 ± 1.2
17390 kPa	979.9 ± 1.2
17427 kPa	979.9 ± 1.2
17458 kPa	980 ± 1.2
17488 kPa	980 ± 1.2
17519 kPa	979.9 ± 1.2
17556 kPa	980 ± 1.2
17588 kPa	980 ± 1.2
17619 kPa	980 ± 1.2
17657 kPa	980 ± 1.2
17688 kPa	980.1 ± 1.2
17726 kPa	980.1 ± 1.2
17758 kPa	980.1 ± 1.2
17790 kPa	980.1 ± 1.2
17823 kPa	980.2 ± 1.2
17862 kPa	980.2 ± 1.2
17894 kPa	980.2 ± 1.2
17926 kPa	980.1 ± 1.2
17966 kPa	980.2 ± 1.2
17998 kPa	980.1 ± 1.2
18037 kPa	980.2 ± 1.2
18070 kPa	980.2 ± 1.2
18103 kPa	980.3 ± 1.2
18137 kPa	980.4 ± 1.2
18177 kPa	980.3 ± 1.2
18210 kPa	980.4 ± 1.2
18244 kPa	980.4 ± 1.2
18285 kPa	980.3 ± 1.2
18319 kPa	980.3 ± 1.2
18360 kPa	980.5 ± 1.2
18394 kPa	980.4 ± 1.2
18429 kPa	980.3 ± 1.2
18470 kPa	980.4 ± 1.2
18504 kPa	980.5 ± 1.2
18539 kPa	980.6 ± 1.2
18581 kPa	980.6 ± 1.2
18616 kPa	980.6 ± 1.2
18652 kPa	980.5 ± 1.2
18694 kPa	980.6 ± 1.2
18731 kPa	980.6 ± 1.2
18766 kPa	980.8 ± 1.2
18802 kPa	980.7 ± 1.2
18846 kPa	980.7 ± 1.2
18882 kPa	980.7 ± 1.2
18919 kPa	980.7 ± 1.2
18963 kPa	980.7 ± 1.2
18999 kPa	980.8 ± 1.2
19044 kPa	980.7 ± 1.2
19081 kPa	980.7 ± 1.2
19118 kPa	980.8 ± 1.2
19155 kPa	980.8 ± 1.2
19200 kPa	980.9 ± 1.2
19238 kPa	980.9 ± 1.2
19276 kPa	980.8 ± 1.2
19320 kPa	980.9 ± 1.2
19357 kPa	980.9 ± 1.2
19394 kPa	980.9 ± 1.2
19437 kPa	981 ± 1.2
19472 kPa	980.9 ± 1.2
19537 kPa	981 ± 1.2
19587 kPa	981 ± 1.2
19666 kPa	981.2 ± 1.2
19710 kPa	981.2 ± 1.2
19746 kPa	981.2 ± 1.2
19773 kPa	981.1 ± 1.2
19802 kPa	981.2 ± 1.2
19829 kPa	981.2 ± 1.2
19855 kPa	981.2 ± 1.2
19888 kPa	981.2 ± 1.2
19915 kPa	981.2 ± 1.2
19942 kPa	981.4 ± 1.2
19976 kPa	981.2 ± 1.2
20003 kPa	981.3 ± 1.2
20036 kPa	981.3 ± 1.2
20064 kPa	981.4 ± 1.2
20092 kPa	981.3 ± 1.2
20120 kPa	981.4 ± 1.2
20156 kPa	981.4 ± 1.2
20180 kPa	981.4 ± 1.2
20215 kPa	981.4 ± 1.2
20244 kPa	981.3 ± 1.2
20280 kPa	981.5 ± 1.2
20310 kPa	981.5 ± 1.2
20341 kPa	981.5 ± 1.2
20376 kPa	981.5 ± 1.2
20397 kPa	981.5 ± 1.2
20414 kPa	981.5 ± 1.2
20435 kPa	981.5 ± 1.2
20452 kPa	981.6 ± 1.2
20469 kPa	981.5 ± 1.2
20490 kPa	981.5 ± 1.2
20508 kPa	981.6 ± 1.2
20525 kPa	981.6 ± 1.2
20543 kPa	981.7 ± 1.2
20563 kPa	981.5 ± 1.2
20581 kPa	981.4 ± 1.2
20598 kPa	981.6 ± 1.2
20619 kPa	981.6 ± 1.2
20637 kPa	981.5 ± 1.2
20658 kPa	981.6 ± 1.2
20676 kPa	981.7 ± 1.2
20694 kPa	981.6 ± 1.2
20715 kPa	981.7 ± 1.2
20733 kPa	981.6 ± 1.2
20751 kPa	981.7 ± 1.2
20769 kPa	981.6 ± 1.2
20790 kPa	981.8 ± 1.2
20808 kPa	981.7 ± 1.2
20830 kPa	981.8 ± 1.2
20848 kPa	981.6 ± 1.2
20866 kPa	981.7 ± 1.2
20884 kPa	981.7 ± 1.2
20905 kPa	981.7 ± 1.2
20923 kPa	981.9 ± 1.2
20942 kPa	981.7 ± 1.2
20964 kPa	981.8 ± 1.2
20982 kPa	981.9 ± 1.2
21004 kPa	981.8 ± 1.2
21022 kPa	981.9 ± 1.2
21040 kPa	981.9 ± 1.2
21059 kPa	981.9 ± 1.2
21081 kPa	981.8 ± 1.2
21099 kPa	981.9 ± 1.2
21118 kPa	982 ± 1.2
21140 kPa	981.8 ± 1.2
21159 kPa	982 ± 1.2
21181 kPa	982 ± 1.2
21200 kPa	981.9 ± 1.2
21219 kPa	981.9 ± 1.2
21238 kPa	982 ± 1.2
21258 kPa	981.8 ± 1.2
21280 kPa	981.9 ± 1.2
21299 kPa	982 ± 1.2
21318 kPa	982 ± 1.2
21341 kPa	982.1 ± 1.2
21360 kPa	982 ± 1.2
21379 kPa	982.1 ± 1.2
21402 kPa	982.1 ± 1.2
21421 kPa	982.1 ± 1.2
21440 kPa	982 ± 1.2
21460 kPa	982 ± 1.2
21483 kPa	982 ± 1.2
21502 kPa	982.1 ± 1.2
21525 kPa	982.1 ± 1.2
21545 kPa	982.1 ± 1.2
21564 kPa	982.1 ± 1.2
21584 kPa	982.1 ± 1.2
21607 kPa	982.2 ± 1.2
21626 kPa	982 ± 1.2
21647 kPa	982.2 ± 1.2
21670 kPa	982.1 ± 1.2
21690 kPa	982.2 ± 1.2
21710 kPa	982.1 ± 1.2
21730 kPa	982 ± 1.2
21755 kPa	982.2 ± 1.2
21775 kPa	982.2 ± 1.2
21795 kPa	982.3 ± 1.2
21815 kPa	982.3 ± 1.2
21839 kPa	982.3 ± 1.2
21859 kPa	982.2 ± 1.2
21879 kPa	982.2 ± 1.2
21898 kPa	982.2 ± 1.2
21922 kPa	982.3 ± 1.2
21943 kPa	982.2 ± 1.2
21963 kPa	982.3 ± 1.2
21987 kPa	982.4 ± 1.2
22008 kPa	982.4 ± 1.2
22033 kPa	982.3 ± 1.2
22054 kPa	982.4 ± 1.2
22074 kPa	982.4 ± 1.2
22094 kPa	982.3 ± 1.2
22115 kPa	982.4 ± 1.2
22140 kPa	982.4 ± 1.2
22160 kPa	982.5 ± 1.2
22185 kPa	982.5 ± 1.2
22205 kPa	982.4 ± 1.2
22226 kPa	982.4 ± 1.2
22251 kPa	982.5 ± 1.2
22271 kPa	982.4 ± 1.2
22292 kPa	982.4 ± 1.2
22318 kPa	982.5 ± 1.2
22339 kPa	982.5 ± 1.2
22360 kPa	982.5 ± 1.2
22382 kPa	982.4 ± 1.2
22407 kPa	982.7 ± 1.2
22428 kPa	982.6 ± 1.2
22453 kPa	982.7 ± 1.2
22474 kPa	982.6 ± 1.2
22496 kPa	982.5 ± 1.2
22517 kPa	982.5 ± 1.2
22543 kPa	982.6 ± 1.2
22564 kPa	982.6 ± 1.2
22586 kPa	982.4 ± 1.2
22612 kPa	982.6 ± 1.2
22634 kPa	982.6 ± 1.2
22655 kPa	982.6 ± 1.2
22681 kPa	982.8 ± 1.2
22703 kPa	982.7 ± 1.2
22725 kPa	982.7 ± 1.2
22822 kPa	982.8 ± 1.2
22844 kPa	982.8 ± 1.2
22866 kPa	982.8 ± 1.2
22889 kPa	982.8 ± 1.2
22916 kPa	982.7 ± 1.2
22938 kPa	982.9 ± 1.2
22961 kPa	982.8 ± 1.2
22987 kPa	982.8 ± 1.2
23010 kPa	982.8 ± 1.2
23032 kPa	982.9 ± 1.2
23059 kPa	982.8 ± 1.2
23082 kPa	982.9 ± 1.2
23104 kPa	982.8 ± 1.2
23132 kPa	983 ± 1.2
23154 kPa	982.9 ± 1.2
23177 kPa	982.9 ± 1.2
23204 kPa	982.9 ± 1.2
23227 kPa	982.9 ± 1.2
23250 kPa	983 ± 1.2
23278 kPa	983 ± 1.2
23301 kPa	982.9 ± 1.2
23324 kPa	983 ± 1.2
23348 kPa	982.9 ± 1.2
23375 kPa	983.1 ± 1.2
23398 kPa	983.1 ± 1.2
23422 kPa	983.1 ± 1.2
23450 kPa	983 ± 1.2
23473 kPa	983 ± 1.2
23497 kPa	983.1 ± 1.2
23525 kPa	983.2 ± 1.2
23549 kPa	983.1 ± 1.2
23573 kPa	983.2 ± 1.2
23597 kPa	983.1 ± 1.2
23625 kPa	983.2 ± 1.2
23649 kPa	983.1 ± 1.2
23672 kPa	983.2 ± 1.2
23701 kPa	983.3 ± 1.2
23725 kPa	983.2 ± 1.2
23753 kPa	983.2 ± 1.2
23777 kPa	983.1 ± 1.2
23801 kPa	983.2 ± 1.2
23831 kPa	983.2 ± 1.2
23857 kPa	983.3 ± 1.2
23881 kPa	983.3 ± 1.2
23905 kPa	983.4 ± 1.2
23934 kPa	983.2 ± 1.2
23959 kPa	983.3 ± 1.2
23983 kPa	983.4 ± 1.2
24008 kPa	983.3 ± 1.2
24038 kPa	983.2 ± 1.2
24062 kPa	983.4 ± 1.2
24087 kPa	983.3 ± 1.2
24117 kPa	983.4 ± 1.2
24142 kPa	983.3 ± 1.2
24168 kPa	983.5 ± 1.2
24194 kPa	983.5 ± 1.2
24219 kPa	983.5 ± 1.2
24248 kPa	983.5 ± 1.2
24273 kPa	983.5 ± 1.2
24304 kPa	983.4 ± 1.2
24329 kPa	983.6 ± 1.2
24354 kPa	983.5 ± 1.2
24385 kPa	983.5 ± 1.2
24410 kPa	983.5 ± 1.2
24436 kPa	983.5 ± 1.2
24466 kPa	983.6 ± 1.2
24492 kPa	983.7 ± 1.2
24518 kPa	983.6 ± 1.2
24544 kPa	983.7 ± 1.2
24576 kPa	983.6 ± 1.2
24601 kPa	983.7 ± 1.2
24632 kPa	983.6 ± 1.2
